#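 These data come from cells grown in 96-well plates and exposed to compound for 48 hours at five concentrations. GI50 = concentration required for 50% inhibition of growth.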 Activity calls are given as the source filed them. Cut-off read from the data, not from the text of the source: active = GI50 up to about 1.1 µM and inactive = higher.
# What was measured:
# Assay in all cases: NCI tumour cell line growth inhibition, 48 h
# [1] = test system: A498
# [2] = test system: A549
# [3] = test system: ACHN
# [4] = test system: BT-549
# [5] = test system: CAKI-1
# [6] = test system: COLO 205
# [7] = test system: EKVX
# [8] = test system: HCC 2998
# [9] = test system: HCT-15
# [10] = test system: K562
# [11] = test system: M14
# [12] = test system: NCI-H460
# [13] = test system: SF-268
# [14] = test system: SF-295
# [15] = test system: SK-MEL-2
# [16] = test system: SK-OV-3
# [17] = test system: SN12C
# [18] = test system: SNB-19
# [19] = test system: UO-31
# [20] = test system: NCI-H522
Compound,GI50 [1],GI50 [2],GI50 [3],GI50 [4],GI50 [5],GI50 [6],GI50 [7],GI50 [8],GI50 [9] [µM],GI50 [10],GI50 [11],GI50 [12],GI50 [13],GI50 [14],GI50 [15],GI50 [16],GI50 [17],GI50 [18],GI50 [19],GI50 [20]
CC(=O)OCCCCn1cnc2nc(Nc3ccccc3)nc(Cl)c21,73.1 µM (inactive),61.7 µM (inactive),60.7 µM (inactive),26.9 µM (inactive),14 µM (inactive),> 100 µM (inactive),> 100 µM (inactive),85.3 µM (inactive),73.1,99.1 µM (inactive),59.6 µM (inactive),> 100 µM (inactive),> 100 µM (inactive),57.1 µM (inactive),> 100 µM (inactive),97.3 µM (inactive),90.6 µM (inactive),> 100 µM (inactive),40.6 µM (inactive),
C(/C=N/c1ccccc1)=C(/Nc1ccccc1)C12CC3CC(CC(C3)C1)C2,23.8 µM (inactive),24.1 µM (inactive),13.6 µM (inactive),16.6 µM (inactive),15.4 µM (inactive),15.9 µM (inactive),20.7 µM (inactive),15.8 µM (inactive),14.1,7.23 µM (inactive),12.7 µM (inactive),23.6 µM (inactive),19.1 µM (inactive),16.6 µM (inactive),,16.4 µM (inactive),18.8 µM (inactive),17.2 µM (inactive),15.1 µM (inactive),10.4 µM (inactive)
CCC(=O)C(c1ccccc1)c1ccccn1 (stereo unspecified),> 100 µM (inactive),> 100 µM (inactive),> 100 µM (inactive),> 100 µM (inactive),> 100 µM (inactive),> 100 µM (inactive),> 100 µM (inactive),> 100 µM (inactive),> 100,,> 100 µM (inactive),> 100 µM (inactive),> 100 µM (inactive),> 100 µM (inactive),> 100 µM (inactive),> 100 µM (inactive),> 100 µM (inactive),> 100 µM (inactive),> 100 µM (inactive),> 100 µM (inactive)
OCCOCn1nc(-c2ccccc2)nc1-c1cnccn1,,> 100 µM (inactive),,> 100 µM (inactive),,> 100 µM (inactive),> 100 µM (inactive),> 100 µM (inactive),> 100,> 100 µM (inactive),> 100 µM (inactive),> 100 µM (inactive),> 100 µM (inactive),> 100 µM (inactive),,> 100 µM (inactive),> 100 µM (inactive),> 100 µM (inactive),> 100 µM (inactive),> 100 µM (inactive)
CCCn1c(C23CC4CC(CC(C4)C2)C3)nc2ccc(Cl)cc2c1=O,17.9 µM (inactive),31.2 µM (inactive),21.2 µM (inactive),44.2 µM (inactive),30 µM (inactive),37.2 µM (inactive),23.9 µM (inactive),,45.6,43.6 µM (inactive),26.1 µM (inactive),36.1 µM (inactive),> 100 µM (inactive),46.6 µM (inactive),47.1 µM (inactive),49.5 µM (inactive),35.2 µM (inactive),49 µM (inactive),15.6 µM (inactive),47.2 µM (inactive)
CCN1CCC(O)(/C=C/c2ccccc2C)C(C(=O)/C=C/c2ccccc2C)C1 (stereo unspecified),1.91 µM (inactive),3.1 µM (inactive),,2.84 µM (inactive),1.82 µM (inactive),1.64 µM (inactive),4.06 µM (inactive),1.31 µM (inactive),1.56,3.07 µM (inactive),2.04 µM (inactive),1.53 µM (inactive),3.87 µM (inactive),2.34 µM (inactive),2.33 µM (inactive),6.14 µM (inactive),2.18 µM (inactive),,1.63 µM (inactive),
Nc1ccc(C2(c3ccc(N)cc3)C3CC4CC(C3)CC2C4)cc1,21 µM (inactive),,18.7 µM (inactive),11.2 µM (inactive),15 µM (inactive),,16.4 µM (inactive),20.8 µM (inactive),14.6,10.3 µM (inactive),14.9 µM (inactive),,1.57 µM (inactive),0.0592 µM (active),18.5 µM (inactive),13.4 µM (inactive),18.5 µM (inactive),14.6 µM (inactive),18.2 µM (inactive),15.6 µM (inactive)
COc1ccc(/C=C/c2cnccn2)cc1OC,> 10 µM (inactive),> 10 µM (inactive),> 10 µM (inactive),> 10 µM (inactive),> 10 µM (inactive),> 10 µM (inactive),> 10 µM (inactive),> 10 µM (inactive),> 10,,> 10 µM (inactive),> 10 µM (inactive),> 10 µM (inactive),> 10 µM (inactive),> 10 µM (inactive),> 10 µM (inactive),> 10 µM (inactive),> 10 µM (inactive),> 10 µM (inactive),> 10 µM (inactive)
c1ccc2c(c1)SC1Sc3ccccc3[S+]21 (stereo unspecified),33.3 µM (inactive),27.4 µM (inactive),14.1 µM (inactive),20.1 µM (inactive),17.8 µM (inactive),11.1 µM (inactive),22 µM (inactive),,> 49.9,6.07 µM (inactive),21.5 µM (inactive),29.5 µM (inactive),18.5 µM (inactive),53.2 µM (inactive),34.8 µM (inactive),> 100 µM (inactive),5.96 µM (inactive),> 81.1 µM (inactive),20.8 µM (inactive),6.53 µM (inactive)
COC(OC)[C@@H]1OC[C@@H](O)[C@@H]1n1cnc2c(N)ncnc21,> 100 µM (inactive),,> 100 µM (inactive),> 100 µM (inactive),> 100 µM (inactive),> 100 µM (inactive),> 100 µM (inactive),> 100 µM (inactive),> 100,> 100 µM (inactive),> 100 µM (inactive),> 100 µM (inactive),> 100 µM (inactive),> 100 µM (inactive),> 100 µM (inactive),> 100 µM (inactive),> 100 µM (inactive),,> 100 µM (inactive),> 100 µM (inactive)
CCOC(=O)c1c2ccccc2n2c(=O)n(-c3ccccc3)nnc12,> 21.2 µM (inactive),63.4 µM (inactive),> 27 µM (inactive),> 100 µM (inactive),> 91.4 µM (inactive),40.7 µM (inactive),> 100 µM (inactive),47.1 µM (inactive),> 76.9,16.6 µM (inactive),59 µM (inactive),30.7 µM (inactive),> 100 µM (inactive),3.25 µM (inactive),> 25.8 µM (inactive),,> 100 µM (inactive),> 100 µM (inactive),74.8 µM (inactive),
COc1cc2cc(C(=O)N3CC(CCl)c4c3cc([N+](C)(C)Cc3ccc([N+](=O)[O-])n3C)c3ccccc43)[nH]c2c(OC)c1OC (stereo unspecified),0.153 µM (active),0.074 µM (active),0.381 µM (active),2.51 µM (inactive),1.71 µM (inactive),0.989 µM (active),2.72 µM (inactive),0.3 µM (active),1.58,,3.61 µM (inactive),0.327 µM (active),2.62 µM (inactive),1.31 µM (inactive),0.374 µM (active),3.81 µM (inactive),4.54 µM (inactive),3.44 µM (inactive),1.17 µM (inactive),0.0638 µM (active)
Oc1cc(-c2ccccc2)nc2c(S)cccc12,,> 100 µM (inactive),95.3 µM (inactive),> 100 µM (inactive),,> 100 µM (inactive),,> 100 µM (inactive),> 100,81.3 µM (inactive),> 100 µM (inactive),> 100 µM (inactive),> 100 µM (inactive),> 100 µM (inactive),,> 100 µM (inactive),> 100 µM (inactive),> 100 µM (inactive),,> 100 µM (inactive)
Cn1ccc(C(=O)NCCN(CCNC(=O)c2ccn(C)c(=O)c2O)CCNC(=O)c2ccn(C)c(=O)c2O)c(O)c1=O,> 100 µM (inactive),> 100 µM (inactive),74.6 µM (inactive),> 100 µM (inactive),> 100 µM (inactive),> 100 µM (inactive),,> 100 µM (inactive),> 100,> 100 µM (inactive),> 100 µM (inactive),> 100 µM (inactive),> 100 µM (inactive),> 100 µM (inactive),> 100 µM (inactive),> 100 µM (inactive),> 100 µM (inactive),> 100 µM (inactive),> 100 µM (inactive),> 100 µM (inactive)
O=c1[nH]c(=O)n([C@@H]2O[C@H](CO)[C@@H](O)[C@H]2O)cc1F [5-FLUOROURIDINE],0.308 µM (active),0.0179 µM (active),0.0307 µM (active),0.459 µM (active),0.0483 µM (active),0.0787 µM (active),37.2 µM (inactive),0.0311 µM (active),0.0367,0.0212 µM (active),0.222 µM (active),0.0159 µM (active),0.0716 µM (active),0.145 µM (active),2.32 µM (inactive),5.66 µM (inactive),0.0603 µM (active),0.0579 µM (active),0.0792 µM (active),
Cc1c2cc[n+](C)cc2c(C)c2c1[nH]c1ccc(O)cc12 [ELLIPTINIUM ACETATE],52.5 µM (inactive),0.447 µM (active),,3.71 µM (inactive),47.4 µM (inactive),21.8 µM (inactive),38.2 µM (inactive),49.4 µM (inactive),50.4,16.9 µM (inactive),1.08 µM (active),0.228 µM (active),0.369 µM (active),5.79 µM (inactive),66.2 µM (inactive),46.5 µM (inactive),0.532 µM (active),0.904 µM (active),17.7 µM (inactive),4.31 µM (inactive)

# — ChEMBL document CHEMBL1201862, “PubChem BioAssay data set” (2004)
